Experimental data published in patent EP0788498B1, “PHENYLOXAZOLIDINONE ANTIMICROBIALS” (priority 1994, dated 1996).
Values after ≈ are worked out from the molar mass of the structure shown. Like-named read-outs stand apart in the source and are kept apart here.

Tests used:
S. aureus UC® 9213 = test: Minimum inhibitory concentration (MIC) by agar dilution; assay type: cell-based; details: Staphylococcus aureus
From the text: (§1) The oxazolidinone antibacterial agents of this invention have useful activity against a variety of organisms. The in vitro activity of compounds of this invention can be assessed by standard testing procedures such as the determination of minimum inhibitory concentration (MIC) by agar dilution as described in "Methods for Dilution Antimicrobial Susceptibility Tests for Bacteria That Grow Aerobically" (MFT) published Jan. 1983 by the National Committee for Clinical Laboratory Standards, 771 East Lancaster Avenue, Villanova, Pennsylvania 19084, USA. The activity of selected compounds of this invention against Staphylococcus aureus and Streptococcus pneumoniae are shown in Table 1.

S. pneumoniae UC® 9912 = test: as above; assay type: cell-based; details: Streptococcus pneumoniae
From the text: as §1

[1] = UC9213, in vitro, agar dilution, strain UC® 9213, read-out: Minimum Inhibitory Concentration S. aureus UC® 9213
[2] = UC9912, in vitro, agar dilution, strain UC® 9912, read-out: Minimum Inhibitory Concentration S. pneumoniae UC® 9912

SMILES	MIC (S. aureus UC® 9213; [1])	MIC (S. pneumoniae UC® 9912; [2])	MIC (S. aureus UC® 9213; UC9213, read-out: Minimum Inhibitory Concentration S. aureus UC® 9213)	MIC (S. pneumoniae UC® 9912; UC9912, read-out: Minimum Inhibitory Concentration S. pneumoniae UC® 9912)
COC(=O)N[C@H]1CN(c2ccc(N3C[C@H](CNC(C)=O)OC3=O)cc2F)C[C@H]1C (relative stereo) [Example 14]	4 µg/mL (≈ 9.79 µM)	1 µg/mL (≈ 2.45 µM)	–	–
CC(=O)NC[C@H]1CN(c2ccc(N3CC(O)C3)c(F)c2)C(=O)O1 [Example 2, (S)-N-[[3-[3-fluoro-4-(3-hydroxy-1-azetidinyl)phenyl]-2-oxo-5-oxazolidinyl]methyl]acetamide]	4 µg/mL (≈ 12.4 µM)	2 µg/mL (≈ 6.19 µM)	–	–
COC1(C)CN(c2ccc(N3C[C@H](CNC(C)=O)OC3=O)cc2F)C1 [Example 6, (S)-N-[[3-[3-fluoro-4-(3-methoxy-3-methyl-1-azetidinyl)phenyl]-2-oxo-5-oxazolidinyl]methyl]acetamide]	8 µg/mL (≈ 22.8 µM)	4 µg/mL (≈ 11.4 µM)	–	–
CC(=O)NC[C@H]1CN(c2ccc(N3CC(C)(O)C3)c(F)c2)C(=O)O1 [Example 7, (S)-N-[[3-[3-fluoro-4-(3-hydroxy-3-methyl-1-azetidinyl)phenyl]-2 oxo-5-oxazolidinyl]methyl]acetamide]	8 µg/mL (≈ 23.7 µM)	2 µg/mL (≈ 5.93 µM)	–	–
CC(=O)NC[C@H]1CN(c2ccc(N3C[C@@H]4OC(C)(C)O[C@@H]4C3)c(F)c2)C(=O)O1 [Example 8, (S)-N-[[3-[4-(1-Aza-5,5-dimethyl-4,6-dioxabicyclo[3,3,0]octan-1-yl)-3-fluorophenyl]-2-oxo-5-oxazolidinyl]methyl]acetamide]	32 µg/mL (≈ 81.3 µM)	8 µg/mL (≈ 20.3 µM)	–	–
CC(=O)NC[C@H]1CN(c2ccc(N3C[C@@H](O)[C@@H](O)C3)c(F)c2)C(=O)O1 [Example 9, (S)-N-[[3-[4-(3,4-cis-dihydroxypyrrolidinyl)-3-fluorophenyl]-2-oxo-5-oxazolidinyl]methyl]acetamide]	8 µg/mL (≈ 22.6 µM)	2 µg/mL (≈ 5.66 µM)	–	–
CN[C@H](CC(C)C)C(=O)N[C@H]1C(=O)N[C@@H](CC(N)=O)C(=O)N[C@H]2C(=O)N[C@H]3C(=O)N[C@H](C(=O)N[C@H](C(=O)O)c4cc(O)cc(O)c4-c4cc3ccc4O)[C@H](O)c3ccc(c(Cl)c3)Oc3cc2cc(c3O[C@@H]2O[C@H](CO)[C@@H](O)[C@H](O)[C@H]2O[C@H]2C[C@](C)(N)[C@H](O)[C@H](C)O2)Oc2ccc(cc2Cl)[C@H]1O [vancomycin, reference compound]	–	–	1 µg/mL (≈ 0.69 µM)	0.5 µg/mL (≈ 0.345 µM)

More lines, in order of falling MIC (S. aureus UC® 9213; [1]), values ahead:

MIC (S. aureus UC® 9213; [1])	MIC (S. pneumoniae UC® 9912; [2])	SMILES	MIC (S. aureus UC® 9213; UC9213, read-out: Minimum Inhibitory Concentration S. aureus UC® 9213)	MIC (S. pneumoniae UC® 9912; UC9912, read-out: Minimum Inhibitory Concentration S. pneumoniae UC® 9912)
16 µg/mL (≈ 39.2 µM)	2 µg/mL (≈ 4.9 µM)	CC(=O)NC[C@H]1CN(c2ccc(N3C[C@@H](C)[C@@H](NC(=O)CO)C3)c(F)c2)C(=O)O1 (relative stereo) [Example 15]	–	–
16 µg/mL (≈ 41.8 µM)	8 µg/mL (≈ 20.9 µM)	CC(=O)NC[C@H]1CN(c2ccc(N3CC(N(C)CCF)C3)c(F)c2)C(=O)O1 [Example 3, (S)-N-[[3-[3-fluoro-4-[3-[N-(2-fluoroethyl)-N-methylamino]-1-azetidinyl]phenyl]-2-oxo-5-oxazolidinyl]methyl]acetamide]	–	–
16 µg/mL (≈ 40.6 µM)	2 µg/mL (≈ 5.07 µM)	CC(=O)NC[C@H]1CN(c2ccc(N3CCC(NC(=O)CO)C3)c(F)c2)C(=O)O1 (stereo partly drawn) [Example 13, (S)-N-((3-(3-Fluoro-4-(3-(hydroxyacetylamino)pyrrolidinyl)phenyl)-2-oxo-5-oxazolidinyl)methyl)acetamide]	–	–
8 µg/mL (≈ 18.7 µM)	1 µg/mL (≈ 2.33 µM)	CC(=O)NC[C@H]1CN(c2ccc(N3C[C@@H](C)[C@@H](NS(C)(=O)=O)C3)c(F)c2)C(=O)O1 (relative stereo) [Example 16]	–	–
8 µg/mL (≈ 16.5 µM)	2 µg/mL (≈ 4.13 µM)	CC(=O)NC[C@H]1CN(c2ccc(N3CCC(NC(=O)COCc4ccccc4)C3)c(F)c2)C(=O)O1 (stereo partly drawn) [Example 12, (S)-N-((3-(3-Fluoro-4-(3-(phenylmethoxyacetylamino)pyrrolidinyl)phenyl)-2-oxo-5-oxazolidinyl)methyl)acetamide]	–	–
4 µg/mL (≈ 11.9 µM)	2 µg/mL (≈ 5.93 µM)	COC1CN(c2ccc(N3C[C@H](CNC(C)=O)OC3=O)cc2F)C1 [Example 1, (S)-N-[[3-[3-fluoro-4-(3-methoxy-1-azetidinyl]phenyl]-2-oxo-5-oxazolidinyl]methyl]acetamide]	–	–
4 µg/mL (≈ 11.4 µM)	1 µg/mL (≈ 2.85 µM)	CON=C1CN(c2ccc(N3C[C@H](CNC(C)=O)OC3=O)cc2F)C1 [Example 5, (S)-N-[[3-[3-fluoro-4-[3-(methoxyimino)-1-azetidinyl]phenyl]-2-oxo-5-oxazolidinyl]methyl]acetamide]	–	–
4 µg/mL (≈ 11.9 µM)	2 µg/mL (≈ 5.96 µM)	CC(=O)NC[C@H]1CN(c2ccc(N3CCC(=O)C3)c(F)c2)C(=O)O1 [Example 11, (S)-N-((3-(3-fluoro-4-(3-oxopyrrolidinyl)phenyl)-2-oxo-5-oxazolidinyl)methyl)acetamide]	–	–
2 µg/mL (≈ 5.93 µM)	1 µg/mL (≈ 2.96 µM)	CC(=O)NC[C@H]1CN(c2ccc(N3CCC(O)C3)c(F)c2)C(=O)O1 (stereo partly drawn) [Example 10, (S)-N-[[3-[4-(3-hydroxypyrrolidinyl)-3-fluorophenyl]-2-oxo-5-oxazolidinyl]methyl]acetamide]	–	–
1 µg/mL (≈ 3.11 µM)	0.5 µg/mL (≈ 1.56 µM)	CC(=O)NC[C@H]1CN(c2ccc(N3CC(=O)C3)c(F)c2)C(=O)O1 [Example 4, (S)-N-[[3-[3-fluoro-4-(3-oxo-1-azetidinyl)phenyl]-2-oxo-5-oxazolidinyl]methyl]acetamide]	–	–
